The source made the active and inactive calls.
Legend:
Large T antigen = Large T antigen (Simian virus 40, UniProt P03070); type: functional, Betapolyomavirus macacae;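 note: Confirmatory-stage PubChem screen for compounds that inhibit SV40 T antigen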
[1] = target: T1, Zinc finger protein mex-5 (Caenorhabditis elegans, UniProt Q9XUB2); assay: potency of MEX-5 RNA-binding blockers – biochemical, C. elegans, fluorescence polarization, dose response (AID 1960)
T1 sequence (Q9XUB2 whole entry): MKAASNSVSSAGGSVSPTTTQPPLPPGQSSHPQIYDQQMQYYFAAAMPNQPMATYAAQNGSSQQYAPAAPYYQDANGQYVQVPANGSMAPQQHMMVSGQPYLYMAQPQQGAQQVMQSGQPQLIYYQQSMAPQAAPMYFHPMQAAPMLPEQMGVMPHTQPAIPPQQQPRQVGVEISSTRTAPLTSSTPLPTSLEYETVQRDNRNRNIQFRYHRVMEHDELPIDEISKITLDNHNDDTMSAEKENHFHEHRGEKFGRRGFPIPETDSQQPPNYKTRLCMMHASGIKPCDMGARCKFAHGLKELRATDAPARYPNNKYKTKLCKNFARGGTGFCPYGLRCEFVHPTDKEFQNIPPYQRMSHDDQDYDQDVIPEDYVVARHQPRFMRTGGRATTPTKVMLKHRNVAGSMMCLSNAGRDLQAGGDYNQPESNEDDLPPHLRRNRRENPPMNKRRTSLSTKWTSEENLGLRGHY

[2] = target: T2, RNA-binding protein pos-1 (Caenorhabditis elegans, UniProt G5EF15); assay: disruptors of C. elegans POS-1 RNA interaction – biochemical, fluorescence polarization, dose response (AID 1964);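 note: purified POS-1 fused to maltose binding protein made in E. coli; potency of compounds blocking POS-1 binding to fluorescent RNA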
T2 sequence (G5EF15 whole entry): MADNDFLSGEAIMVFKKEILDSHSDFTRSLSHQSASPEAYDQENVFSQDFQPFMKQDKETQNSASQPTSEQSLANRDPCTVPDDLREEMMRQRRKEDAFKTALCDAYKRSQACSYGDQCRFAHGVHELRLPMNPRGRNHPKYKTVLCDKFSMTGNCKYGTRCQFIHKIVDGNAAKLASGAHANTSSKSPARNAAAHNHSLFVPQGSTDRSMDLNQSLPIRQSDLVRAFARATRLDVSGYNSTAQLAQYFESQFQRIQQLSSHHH

[3] = target: T3, Carboxy-terminal domain RNA polymerase II polypeptide A small phosphatase 1 (Homo sapiens, UniProt Q9GZU7); assay: CTDSP1 inhibitors, concentration-response, biochemical, absorbance readout, ultra-high-throughput screen actives (AID 540297); type: functional
T3 sequence (Q9GZU7 whole entry): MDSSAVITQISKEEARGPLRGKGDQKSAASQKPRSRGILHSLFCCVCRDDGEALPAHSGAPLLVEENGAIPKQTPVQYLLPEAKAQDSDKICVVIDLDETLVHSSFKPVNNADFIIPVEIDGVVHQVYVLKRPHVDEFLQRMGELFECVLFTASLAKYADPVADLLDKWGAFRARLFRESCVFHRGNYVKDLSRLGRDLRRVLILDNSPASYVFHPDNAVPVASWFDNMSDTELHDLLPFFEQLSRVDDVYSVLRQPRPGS

Nonstructural protein 1 = Nonstructural protein 1 (Influenza A virus, UniProt Q194T2); type: functional, Influenza A virus (A/California/07/2009(H1N1))
Protein skinhead-1 = target: T4, Protein skinhead-1 (Caenorhabditis elegans, UniProt P34707); type: functional
T4 sequence (P34707 whole entry): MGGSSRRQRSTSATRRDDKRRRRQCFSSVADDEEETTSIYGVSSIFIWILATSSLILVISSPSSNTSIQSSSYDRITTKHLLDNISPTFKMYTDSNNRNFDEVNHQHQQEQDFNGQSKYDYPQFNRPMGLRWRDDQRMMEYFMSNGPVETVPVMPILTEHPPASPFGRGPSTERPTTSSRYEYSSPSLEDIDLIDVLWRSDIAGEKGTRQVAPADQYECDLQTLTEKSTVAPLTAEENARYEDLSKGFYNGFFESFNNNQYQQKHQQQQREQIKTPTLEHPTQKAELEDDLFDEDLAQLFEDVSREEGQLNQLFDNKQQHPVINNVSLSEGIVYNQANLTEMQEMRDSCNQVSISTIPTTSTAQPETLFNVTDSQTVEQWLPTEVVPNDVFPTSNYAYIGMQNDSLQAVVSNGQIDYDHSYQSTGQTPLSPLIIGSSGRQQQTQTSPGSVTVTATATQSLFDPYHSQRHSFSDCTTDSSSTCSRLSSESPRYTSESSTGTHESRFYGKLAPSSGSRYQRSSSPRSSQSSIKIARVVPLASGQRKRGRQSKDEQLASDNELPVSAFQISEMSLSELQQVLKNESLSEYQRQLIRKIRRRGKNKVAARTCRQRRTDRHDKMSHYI

Streptokinase A = target: T5, Streptokinase A (Streptococcus pyogenes serotype M1, UniProt P10520); assay: viability-normalized secreted streptokinase activity reduction – plasminogen activation absorbance, OD405, dose response (AID 1914); type: functional, Streptococcus pyogenes M1 GAS;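 note: secreted streptokinase activity via plasminogen activation per viability signal from cell pellet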
T5 sequence (P10520 whole entry): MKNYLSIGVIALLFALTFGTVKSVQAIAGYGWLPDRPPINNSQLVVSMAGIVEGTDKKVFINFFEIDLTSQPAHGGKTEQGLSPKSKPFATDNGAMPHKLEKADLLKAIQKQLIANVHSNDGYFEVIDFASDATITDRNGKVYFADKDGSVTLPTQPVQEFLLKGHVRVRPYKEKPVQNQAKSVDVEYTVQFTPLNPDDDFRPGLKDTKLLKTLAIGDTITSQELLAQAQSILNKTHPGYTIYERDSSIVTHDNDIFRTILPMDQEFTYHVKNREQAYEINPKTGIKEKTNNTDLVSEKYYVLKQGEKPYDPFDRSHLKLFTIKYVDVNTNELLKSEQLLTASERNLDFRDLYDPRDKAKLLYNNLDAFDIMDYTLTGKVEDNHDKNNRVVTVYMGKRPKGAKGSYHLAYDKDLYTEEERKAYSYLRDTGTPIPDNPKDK

Streptococcus = assay: GAS UMAA2166 growth inhibition – luminescence, BacTiterGlo, counter-screen for streptokinase expression inhibitor project, dose response (AID 1915); type: functional, organism-based;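 note: potency for reduction of bacterial viability or growth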
[4] = blockers of HIV-1 envelope-mediated cell-cell fusion – cherry-pick, dose response (AID 652057); type: functional, cell-based
[5] = blockers of HIV-1 ZM109 envelope-driven cell-cell fusion – HeLa effector, CEM target cells, luciferase, cherry-pick, dose response (AID 652058); type: functional, cell-based;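 note: luciferase signal from HIV-1 Env mediated cell-cell fusion of effector and target cells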
[6] = off-target signal loss in HeLa-CEM21 co-culture – HeLa F-luc CTL cells, cherry-picked, counter-screen for HIV-1 Env fusion inhibitor project, dose response (AID 652040); type: functional, cell-based;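 note: potency for signal decrease marking cytotoxic or nonspecific inhibition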
[7] = HIV-1 AD8 envelope cell-cell fusion blockers – cherry-pick, dose response (AID 652062); type: functional, cell-based;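 note: luciferase signal from cell-cell fusion driven by HIV-1 clade B AD8 Env; potency is for inhibitors of fusion seen as a drop in luminescence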
cells [8] = type: functional, cell-based
cells [9] = type: functional, cell-based; remark: listed apart in the source
[10] = luciferase reporter signal suppression in cells – H4 neuroglioma cells, luminescence, dose response (AID 1990); type: functional, cell-based
[11] = Luminescence Cell-Based Dose Response HTS to Identify Inhibitors of 5'UTR Stem-Loop Driven Prion Protein mRNA Translation in H4 Neuroglioblastoma Cells. [Related pubchem assays: 1827 (Project Summary), 1813 (Primary HTS)]; type: functional
[12] = alpha-synuclein stem-loop luciferase translation blockers – H4 neuroglioma cells, luminescence, confirmation (AID 1988); type: functional, cell-based
[13] = target: T6, Rac GTPase-activating protein 1 (Homo sapiens, UniProt Q9H0H5); assay: blockers of MgcRacGAP-driven Rac1 GTP hydrolysis – biochemical, ADP Hunter fluorescence, primary and confirmatory, confirmation (AID 624330); type: functional
T6 sequence (Q9H0H5 whole entry): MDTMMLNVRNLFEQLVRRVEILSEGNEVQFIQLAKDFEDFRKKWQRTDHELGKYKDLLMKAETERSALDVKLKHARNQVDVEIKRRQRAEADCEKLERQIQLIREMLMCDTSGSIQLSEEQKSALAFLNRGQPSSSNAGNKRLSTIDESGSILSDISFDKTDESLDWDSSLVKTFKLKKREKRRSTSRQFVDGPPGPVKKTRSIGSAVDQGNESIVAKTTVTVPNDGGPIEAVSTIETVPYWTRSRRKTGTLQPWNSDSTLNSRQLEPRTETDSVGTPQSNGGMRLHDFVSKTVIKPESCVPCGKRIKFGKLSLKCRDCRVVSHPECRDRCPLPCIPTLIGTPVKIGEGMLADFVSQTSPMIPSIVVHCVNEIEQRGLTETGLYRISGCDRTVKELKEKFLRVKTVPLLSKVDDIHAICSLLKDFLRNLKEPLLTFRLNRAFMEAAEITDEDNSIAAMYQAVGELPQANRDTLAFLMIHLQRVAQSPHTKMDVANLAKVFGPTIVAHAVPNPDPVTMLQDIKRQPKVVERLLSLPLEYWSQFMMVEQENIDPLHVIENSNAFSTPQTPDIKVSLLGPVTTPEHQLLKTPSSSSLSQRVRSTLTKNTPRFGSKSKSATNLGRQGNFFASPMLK

Paired box protein Pax-8 = Paired box protein Pax-8 (Homo sapiens, UniProt Q06710); assay: PAX8 transcriptional activity inhibition in RMG-I – RMG-I cells, luciferase, cherry-pick, dose response (AID 687027); type: functional, cell-based;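 note: luciferase reporter driven by Pax8 target thyroperoxidase promoter measured by SteadyGlo luminescence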
[14] = viability of uninfected HEp-2 cells – cell-based, HTS, cytotoxicity control for RSV inhibitor project, dose response (AID 2410); type: functional; details: human respiratory syncytial virus

Large T antigen, sequence (P03070 whole entry): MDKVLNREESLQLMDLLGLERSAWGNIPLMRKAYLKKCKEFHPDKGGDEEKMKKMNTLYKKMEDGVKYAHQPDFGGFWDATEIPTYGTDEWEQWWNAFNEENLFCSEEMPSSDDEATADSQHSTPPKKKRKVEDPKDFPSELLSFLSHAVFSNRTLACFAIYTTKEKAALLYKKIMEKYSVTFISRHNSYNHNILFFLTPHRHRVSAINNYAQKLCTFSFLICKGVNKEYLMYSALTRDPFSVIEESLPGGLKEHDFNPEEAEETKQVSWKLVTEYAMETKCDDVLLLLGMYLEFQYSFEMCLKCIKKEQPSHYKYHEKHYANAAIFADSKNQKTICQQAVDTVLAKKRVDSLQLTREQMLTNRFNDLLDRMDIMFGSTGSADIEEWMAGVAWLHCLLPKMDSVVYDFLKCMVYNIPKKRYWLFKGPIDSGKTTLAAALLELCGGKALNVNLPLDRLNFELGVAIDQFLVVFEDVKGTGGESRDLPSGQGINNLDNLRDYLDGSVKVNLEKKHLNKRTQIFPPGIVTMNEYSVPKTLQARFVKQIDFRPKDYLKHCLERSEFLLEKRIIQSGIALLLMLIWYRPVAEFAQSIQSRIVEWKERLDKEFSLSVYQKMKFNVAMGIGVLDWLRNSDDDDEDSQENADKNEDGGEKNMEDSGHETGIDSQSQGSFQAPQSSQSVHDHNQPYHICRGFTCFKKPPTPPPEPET
Nonstructural protein 1, sequence (Q194T2 whole entry): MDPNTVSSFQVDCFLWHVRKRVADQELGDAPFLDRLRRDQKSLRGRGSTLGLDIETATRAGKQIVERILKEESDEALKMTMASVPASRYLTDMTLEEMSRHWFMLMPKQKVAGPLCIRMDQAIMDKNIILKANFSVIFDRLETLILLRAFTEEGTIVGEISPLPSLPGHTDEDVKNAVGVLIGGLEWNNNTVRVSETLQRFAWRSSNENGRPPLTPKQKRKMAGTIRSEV
Paired box protein Pax-8, sequence (Q06710 whole entry): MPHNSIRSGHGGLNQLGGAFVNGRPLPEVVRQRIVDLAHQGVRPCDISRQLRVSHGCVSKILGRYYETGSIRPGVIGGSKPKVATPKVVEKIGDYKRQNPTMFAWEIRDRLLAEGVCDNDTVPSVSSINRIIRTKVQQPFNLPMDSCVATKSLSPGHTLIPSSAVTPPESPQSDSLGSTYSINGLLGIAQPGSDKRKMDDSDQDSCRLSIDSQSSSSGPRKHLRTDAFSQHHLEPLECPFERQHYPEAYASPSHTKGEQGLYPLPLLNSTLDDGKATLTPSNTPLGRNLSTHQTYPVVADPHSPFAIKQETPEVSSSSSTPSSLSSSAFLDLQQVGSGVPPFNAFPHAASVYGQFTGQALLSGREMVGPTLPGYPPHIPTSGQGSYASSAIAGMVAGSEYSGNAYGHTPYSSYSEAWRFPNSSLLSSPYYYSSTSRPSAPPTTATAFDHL

## Cc1ccc(/C=C2\C(=O)NC(=S)N(c3cccc(F)c3)C2=O)o1
Large T antigen
  IC50: 36.7 µM (active)
[1]
  EC50: 44.6 µM (active)
[2]
  EC50: 63.5 µM (active)

## COc1cc2cnc(-c3ccccc3)c(-c3cc(OC)c(OC)c(OC)c3)c2cc1OC
[3]
  IC50: 67.2 µM (active)

## Oc1cccc2c(-c3nn[nH]n3)ccnc12
Nonstructural protein 1
  IC50: 7.24 µM (active)

## O=C(Nc1cccc([N+](=O)[O-])c1)c1cnccn1
[3]
  IC50: 5.88 µM (active)

## COc1ccc(S(=O)(=O)NCCSC(C)(C)C)c(Cl)c1Cl
[3]
  IC50: 8.61 µM (active)

## CCCCNC(=O)COC(=O)c1cc(S(=O)(=O)N2CCCCCC2)ccc1OC
Protein skinhead-1
  IC50: > 100 µM (inactive)

## CN(C)c1nc(SCc2ccccc2Cl)nc2c1CCCC2
Protein skinhead-1
  IC50: > 100 µM (inactive)
Streptokinase A
  EC50: 14 µM (active)
Streptococcus
  EC50: > 150 µM (not active)

## Cc1cc2ccccn2c1C(=O)c1cc([N+](=O)[O-])cc([N+](=O)[O-])c1
Nonstructural protein 1
  IC50: 40.7 µM (active)

## Cc1ccc(OCCCCNC(C)c2ccccc2)c(C)c1 (stereo not drawn)
[4]
  AC50: 3.69 µM (active)
[5]
  AC50: 5.29 µM (active)
[6]
  AC50: 2.94 µM (active)
[7]
  AC50: 5.36 µM (active)

## C=CCOCCN1C(=O)C2C3C=CC(C2C1=O)C1C2C(=O)N(CCOCC=C)C(=O)C2C31 (stereo not drawn)
[3]
  IC50: 19.9 µM (active)

## N#Cc1ccsc1NC(=O)COC(=O)CCS(=O)(=O)c1ccccc1
[3]
  IC50: 8.32 µM (active)

## O=C(COC(=O)c1cccc(S(=O)(=O)N2CCOCC2)c1)Nc1ncc(C(F)(F)F)cc1Cl
Cells [8]
  EC50: > 350 µM (not active)
Cells [9]
  EC50: > 350 µM (not active)
Protein skinhead-1
  IC50: > 100 µM (inactive)

## COc1ccc(CC(=O)Nc2nnc(SCc3ccccc3)s2)cc1S(=O)(=O)N1CCOCC1
Protein skinhead-1
  IC50: > 100 µM (inactive)

## O=C(NCc1ccco1)c1ccc(Cn2c(=O)c3ccccc3n(Cc3cccc(Cl)c3)c2=O)cc1
[4]
  AC50: 1.83 µM (active)
[10]
  EC50: 11.8 µM (active)
[5]
  AC50: 2.76 µM (active)
[6]
  AC50: 1.78 µM (active)
[11]
  EC50: > 120 µM (not active)
[12]
  EC50: 16.5 µM (active)
[7]
  AC50: 1.34 µM (active)

## Cc1ccc(NC(=O)N2CCC(NC(=O)c3cccc(C)c3)CC2)cc1
Cells [8]
  EC50: > 350 µM (not active)
Cells [9]
  EC50: > 350 µM (not active)
[3]
  IC50: 10.5 µM (active)

## N#CC1(NC(=O)COc2ccccc2[N+](=O)[O-])CCCCC1
[3]
  IC50: 18.7 µM (active)

## Cc1ccc(C2C=NN(c3ccccc3)C2=O)cc1 (stereo not drawn)
Large T antigen
  IC50: 31 µM (active)
[13]
  IC50: 115 µM (active)

## C=C(C)c1cccc(C(C)(C)NC(=O)Nc2ccc(Cl)cn2)c1
[4]
  AC50: 50.7 µM (active)
[5]
  AC50: 0.604 µM (active)
[6]
  AC50: 16.5 µM (active)
[7]
  AC50: 12.8 µM (active)

## CSc1ccc(-c2nnn(Cc3ccc(Br)cc3)n2)cc1
Protein skinhead-1
  IC50: > 100 µM (inactive)

## CCOC(=O)C1=CN(Cc2cccc(-c3cccnc3)c2)S(=O)(=O)N(C)C1C (stereo not drawn)
Paired box protein Pax-8
  AC50: 59.2 µM (active)

## Nc1ncc(-c2ccc(-c3ccccc3)cc2F)cc1-c1ccccc1F
Protein skinhead-1
  IC50: > 100 µM (inactive)

## C[C@@H]1CCCCO[C@H](CN(C)C(=O)Nc2ccc(C(F)(F)F)cc2)[C@H](C)CN([C@@H](C)CO)C(=O)c2cc(NS(=O)(=O)c3ccc(Cl)cc3)ccc2O1
Paired box protein Pax-8
  AC50: 16.4 µM (active)

## CC/N=c1\scc(C)n1/N=C/c1cc(Br)c(O)c(OC)c1
Large T antigen
  IC50: 8.55 µM (active)
[14]
  CC50: 15.6 µM (active)
[13]
  IC50: 25.2 µM (active)

## COc1cccc(/C=N/NC(=O)C(=O)NCc2cccnc2)c1O
Nonstructural protein 1
  IC50: 8.2 µM (active)

## OC[C@H]1O[C@@H](n2cnc3c(NCc4ccco4)ncnc32)[C@H](O)[C@@H]1O [KINETIN RIBOSIDE]
Paired box protein Pax-8
  AC50: 2.25 µM (active)
